Tested on: activated equine neutrophils
Assay: Combined SIEFED-ELISA measurement of total and active MPO released by PMA-activated equine neutrophils pre-incubated with polyphenols
Assay type: cell-based, horse
Conditions: for inhibition percentage on total enzyme (MPO) release / inhibition percentage on MPO activity (active fraction of MPO released): 10^-5 M, neutrophils pre-incubated 10 min at 37° C., activated 30 min with 8×10^−7 M PMA, supernatant
Protocol: The primary antibody(2), that captures the enzyme (MPO 1), is a rabbit IgG (3 μg/ml). Standard enzyme (MPO) or unknown sample is incubated 2 h at 37° C. After washing, the (peroxidase) activity of the enzyme (MPO) is detected by adding 100 μl of a 10 μM H2O2 solution and 40 μM of Amplex® Red (8) (10-acetyl-3,7-dihydroxyphenoxazine; from Molecular Probes) in phosphate buffer (50 mM, pH 7.5). The fluorescence is read during 30 min (at 37° C.) at 590 nm with a Fluoroskan Ascent apparatus (Labsystems). The volumes of the primary antibody(2) and the sample put in the wells, are 200 μl. Controls (blank) and dilutions of the samples are established with dilution buffer.
Enhancement of fluorescence was obtained when adding a defined concentration of nitrites ions (about 10 mM) to the Amplex® Red solution (8). The fluorescence response obtained in this SIEFED steps (part) of the combined SIEFED-ELISA bioassay is directly proportional to the enzymatically active fraction of the enzyme (equine MPO) present in the sample.
After the SIEFED detection, a washing (0.9% NaCl solution containing 0.1% tween 20) is performed before starting the ELISA part of the combined method; the immobilized antibody(2)—antigen(1) complex is incubated (2 h, 37° C.) with an excess (5 μg/ml) of guinea pig IgG, the secondary antibody (4). After washing, a third antibody (5) produced against guinea pig IgG is added. This third IgG (5) (goat IgG) is labeled with alkaline phosphatase (6) and recognizes the “sandwich” complex “primary antibody (2)—MPO(1)—secondary antibody”(4). After washing, phosphatase activity is detected by incubation (30 min, 37° C., in the darkness) with a paranitrophenyl phosphate solution (phosphatase substrate, Sigma). The reaction is stopped with NaOH and the absorbance (405 nm) is measured with a Multiscan Ascent apparatus (Labsystem). All the volumes added into the wells comprise 100 μl, except for washing (300 μl) and for the substrate solution (200 μl). Controls (blank) and dilutions of the standard enzyme (MPO) and samples were established with dilution buffer [PBS (20 mM phosphate, 137 mM NaCl and 2.7 mM KCl pH 7.4) to which 5 g/L bovine serum albumin and 0.1% tween 20 were added].
Neutrophils isolated from citrated blood of healthy horses were counted, suspended in phosphate buffer saline (PBS) at pH 7.4 and incubated 10 min at 37° C. with curcumin or THC at the final concentration of 10^−4, 10^−5 or 10^−6 M. After incubation and centrifugation (1000×g, 10 min), the neutrophils were resuspended in PBS and activated 30 min with 8×10^−7 M phorbol myristate acetate (PMA) followed by centrifugation and active and total enzyme (MPO) measurement in the supernatant by the combined SIEFED-ELISA specific bioassay. The effects of polyphenols on total and active fraction of enzyme (MPO) released by stimulated neutrophils were studied by pre-incubation of neutrophils with the drugs at various concentrations, before the neutrophil stimulation.

| Compound | inhibition percentage on total enzyme (MPO) release (ELISA part) [%] | inhibition percentage on MPO activity (active fraction of MPO released) (SIEFED part) [%] | effect on the total enzyme (MPO) released by activated neutrophils (10^−4, 10^−5 or 10^−6 M, PMA-activated equine neutrophils, ELISA part) | effect on the active fraction of the enzyme (MPO) released by activated neutrophils (10^−4, 10^−5 or 10^−6 M, PMA-activated equine neutrophils, SIEFED part) |
| --- | --- | --- | --- | --- |
| COc1cc(CCC(=O)CC(=O)CCc2ccc(O)c(OC)c2)ccc1O [THC, Tetrahydrocurcumin] | 18 | 22 |  |  |
| COc1cc(/C=C/C(=O)CC(=O)/C=C/c2ccc(O)c(OC)c2)ccc1O [curcumin, Curcumin] | 44 | 60 | dose dependent inhibitory effects | dose dependent inhibitory effects |

From patent US20100196926A1, “Combined Method And Kit For The Sequential Measurement of (1) The Enzymatically Active Fraction And (2) The Total Amount Of An Enzyme” (UNIVERSITE DE LIEGE, priority 2007, published 2010)
